In test [1] the test system is dermabrasion lesions of dorsal skin. Nature of the test: Dermabrasion lesions of dorsal skin of mice, topical treatment. It is filed as in vivo, ICR breeder mice. To be noted: 5 μL of 100 nanomolar RT1061 topical once daily, 10 days after rasping. Here is the method:
Retired ICR breeder mice of both sexes with weight between 45 and 50 grams were shaved and rasped to induce dermabrasion lesions. The animals were then randomly assigned (5 per treatment arm) to one of two groups to receive either 5 μL of 100 nanomolar RT1061 or a vehicle control. RT1061 or vehicle control was applied topically to the lesion site once each day including immediately after dermabrasion.

The test system of test [2] is ear punch-hole wound (mouse pinna). Kind of test: Punch-hole biopsy of the ear of mice, topical treatment. Type of test: in vivo, ICR breeder mice. To be noted: topical once daily, within 21 days of punch-hole biopsy; 2.4 μg RT1061, 80 μg FK506. Here is the method:
Retired ICR breeder mice of both sexes with weight between 45 and 50 grams were subject to single bilateral punch-hole biopsies. The animals were then randomly assigned to one of three groups to receive either 2.4 μg of RT1061, 80 μg FK506 or a vehicle control. RT1061, FK506 or vehicle control was applied topically to both the ventral and dorsal surface of the ear, once each day including immediately after biopsy.
All wounds were photographed using a Nikon CoolPix 990 digital camera. Each image included a metric ruler that had been approximated to the wound. The images of the wounds were opened in Adobe Photoshop, and using the “measurement tool”, the length, in pixels, of 3 cm along the ruler's straight edge was determined. That number was used to calculate a conversion factor that was then used to normalize each photograph. The conversion factor was calculated as 100/length. To normalize the area of the lesion in a photograph, the […] using the “magic wand” tool, and the number of voxels were multiplied by the conversion factor, thus generating the equation: area=volume (voxels)*conversion factor. The area at t=0 was defined as 100%. […] The mean area of the initial hole was calculated as average […] of the punches at t=0 (determined by using an outline of the hole measured against the ruler, using Adobe Photoshop) times π. […]

The next test has as its target T1, FKBP52 (Homo sapiens, UniProt Q02790).
T1 construct: endogenous in cells
T1 sequence (Q02790 1-459): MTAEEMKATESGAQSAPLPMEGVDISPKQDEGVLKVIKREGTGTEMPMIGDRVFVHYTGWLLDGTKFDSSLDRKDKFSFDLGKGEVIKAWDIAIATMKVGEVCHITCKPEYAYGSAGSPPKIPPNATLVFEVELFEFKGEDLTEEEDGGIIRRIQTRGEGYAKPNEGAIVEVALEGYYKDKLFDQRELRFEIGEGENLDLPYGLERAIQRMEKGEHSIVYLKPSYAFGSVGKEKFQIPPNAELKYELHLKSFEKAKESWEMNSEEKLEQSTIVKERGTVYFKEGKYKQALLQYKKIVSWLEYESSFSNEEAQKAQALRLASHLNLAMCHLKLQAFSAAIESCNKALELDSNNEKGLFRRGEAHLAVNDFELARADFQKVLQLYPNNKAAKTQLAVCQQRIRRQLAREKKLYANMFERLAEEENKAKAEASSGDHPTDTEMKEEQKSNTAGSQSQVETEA
The conditions noted are these: treatment of fibroblasts for 2 hours; cited from earlier work.

The target in test [3] is T2, FK506 binding protein 4 (FKBP52) (Homo sapiens, UniProt Q02790).
T2 sequence (Q02790 1-459): T1 sequence (Q02790 1-459)
To be noted: cited from earlier work.

Test [4] relates to resection site of a periauricular basal cell carcinoma. Nature of the test: Healing of full-thickness resection site of periauricular basal cell carcinoma, topical treatment. It is filed as in vivo, person. The text has this:
A person underwent a full-thickness resection of a basal cell carcinoma on an outpatient basis. See FIG. 1, panel a. showing wound during operation and panel b. showing wound immediately post operation. RT175 formulated in an Amantle™ cream base was applied immediately post-operatively, and then daily thereafter for 12 days. […] An archival photo of a scar biopsy is included for comparison.

In test [5] the test system is ED&C sites of the supradeltoid regions of the upper arm. Nature of the test: Healing after electrodissection and curettage (ED&C) of the upper arm, topical treatment. It is filed as in vivo, person. Here is the method:
The supradeltoid regions of the left and right upper arm were treated by electrodissection and curettage (“ED&C”) for treatment of basal cell […]. Beginning on the day of surgery, and daily thereafter the sites were treated with RT175 in an Amantle™ cream base, or with the Amantle™ cream base alone. […] See FIG. 2, Day 20, bottom panel. In contrast, 68 days after the procedure the vehicle treated site was still not fully closed. Six-months following the procedure, the RT175-treated site was scar-free, see FIG. 3, panel a., while the vehicle-treated site has a pronounced, hypopigmented stellate shaped scar, see FIG. 3, panel b.

Test [6] relates to stem cell markers Oct-4 and Sox-2. Kind of test: Stem cell marker immunohistology of treated 5 mm dermal biopsy punch sites. Type of test: in vivo, person. The conditions noted are these: RT175 in Amantle cream base daily for 30 days, re-biopsy, 10 micron sections. How it is done:
A person underwent bilateral 5 millimeter (“mm”) dermal biopsy punches in the forearm, 5 centimeter (“cm”) distal to the antecubital space. Treatment with RT175 in an Amantle™ cream base, or with the Amantle™ cream base alone was begun immediately upon hemostasis. The skin was treated daily for 30 days, whereupon the sites were re-biopsied and the tissue processed for immunohistology. 10 micron thick sections were stained for the expression of the stem cell markers Oct-4, see FIG. 4, panels a. and c., or Sox-2, see FIG. 4, panels b. and d. […] Not to be held to a particular theory, the presence of stem cells markers in RT175 treated wound sites indicates active stem cells. The presence of these stem cells in the wound site causes rapid and proper wound healing without the formation of scar tissue. In turn, the absence of stem cells from wound sites allows the formation of scar tissue.

Structures are written as SMILES.

As for `CCC(C)(C)C(=O)C(=O)N1CCCC1Cc1ccccc1` (centres unmarked) [RT1061, 1-(2-benzylpyrrolidin-1-yl)-3,3-dimethylpentane-1,2-dione], in test [1], the hair growth result is “rapid hair growth” and the “regeneration of rasped skin” value was “rapid regeneration of rasped skin”. The “regeneration of mouse pinna tissue (ear-hole closure)” value in test [2] is “almost complete regeneration of the mouse pinna”.
Regarding `CCC(C)(C)C(=O)C(=O)N1CCC[C@H]1C(=O)O` [RT175], at FKBP52, the “translocation of FKBP52” value was “translocation of FKBP52 to the nucleus”. The “binding affinity to FKBP52” value in test [3] is given as “high affinity”. The “scar observed, skin appearance” value in test [4] (12th post-operative day, RT175 in Amantle cream base daily) was “little to no scar”. Moreover, the “wound closed and largely healed by” value in test [4] (RT175 in Amantle cream base, applied immediately post-operatively then daily for 12 days) is at most 7 post-operative day. Further, the “scar tissue by biopsy” value in test [4] (biopsy 6 months later) was “absence of scar tissue”. Further, the “treated site fully closed by” value in test [5] (RT175 in Amantle cream base daily, vehicle site still not fully closed at 68 days) was at most 20 post-operative day. For the same compound, the “scar at treated site” value in test [5] (six months following the procedure) is “scar-free”. Further, the “expression of stem cell markers Oct-4 and Sox-2 in treated tissue” value in test [6] is reported as “expressed both stem cell markers”.
